Read-outs that look alike come from different tables or passages of the source. Blank lines part the entries; values can stand above or below the compound they belong to.
How the values were obtained:
WiDr cells = assay: Growth inhibition, SRB assay, WiDr; assay type: cell-based; conditions: Homo sapiens, 72 h, read-out: IC50, 72 h drug exposure
Method: (§1) Briefly, cells were seeded in triplicate in 96-well plates at their pre-established optimal density (CHO cells: 2,500 cells/100 μL; WiDr and HT29: 3,500 cells/100 μL; WiDr-LF/LV, LS174T: 5,000 cells/100 μL; CaCo2, CaCo2-LF/LV, H292, H28 and MSTO-211H: 6,000 cells/100 μL; H460, SW948 and SW1398: 7,000 cells/100 μL) and were allowed to attach for ∼ 24 h at 37°C in 5% CO2 and 100% humidified incubator. Thereafter, 100 μL of drug dilution without LV, or with 5 μM l-LV/5 μM d-LV/10 μM dL-LV (or any LV alone) were added. Cells were allowed to grow for 72 h at 37°C in 5% CO2 and 100% humidity. The t = 0 h control plate consisted of cells plated on the same day as the other cells, but after 24 h at 37°C in 5% CO2 and 100% humidity, only 100 μL medium was added and the cells were fixed immediately with 50% trichloroacetic acid (TCA) in milliQ water (25 μL per well) and put at 4°C for at least 1 h. Plates were washed five times with water and dried. Cells were stained with the SRB protein dye (0.4% (w/v) in 1% acetic acid. Excess dye was washed away four times with 1% acetic acid and plates were dried again. 200 μL of Tris (10 mM Tris (hydroxymethyl)-aminomethane in MQ) was added and optical density (OD) was read at 492 nm after mixing 2–3 min on a plate shaker.

SW1398 cells = assay: Growth inhibition, SRB assay, SW1398; assay type: cell-based; conditions: Homo sapiens, 72 h, read-out: IC50, 72 h drug exposure
Method: as §1

[1] = molecular target: T1, thymidylate synthase (TS) (Homo sapiens, UniProt P04818); assay: TS in situ inhibition assay (TSIA) in colon cancer cells; assay type: cell-based
T1 construct: The principle of this assay is the measurement of TS enzymatic activity in intact cells; endogenous in cells; host or cells: colon cancer cell lines (WiDr, WiDr-LF, SW1398, LS174T and others)
T1 sequence (P04818 2-313 limits assumed): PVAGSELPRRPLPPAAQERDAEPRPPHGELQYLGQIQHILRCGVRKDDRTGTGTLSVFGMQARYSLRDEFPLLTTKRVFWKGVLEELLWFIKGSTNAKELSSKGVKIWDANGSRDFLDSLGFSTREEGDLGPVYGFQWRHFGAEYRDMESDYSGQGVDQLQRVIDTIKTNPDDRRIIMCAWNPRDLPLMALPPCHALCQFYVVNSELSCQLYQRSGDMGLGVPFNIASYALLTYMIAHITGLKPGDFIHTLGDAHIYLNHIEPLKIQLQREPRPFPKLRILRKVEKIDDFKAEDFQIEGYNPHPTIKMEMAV
Source text: The principle of this assay is the measurement of TS enzymatic activity in intact cells. Intact cells will readily internalize radioactively labelled [5-^3H]-deoxycytidine, which will be rapidly converted by deoxycytidine kinase (dCK) to [5-^3H]-dCMP and subsequently deaminated to [5-^3H]-dUMP, which will then serve as a substrate in the TS catalysed reaction to dTMP and ^3H2O; the quantity of ^3H2O formed over time is a measure of intracellular TS activity. […] This is because dCK has a higher, cell cycle independent activity than thymidine kinase 1, which is a cell cycle dependent enzyme. For this purpose, cancer cells were cultured in six wells plates at 2.5 × 10^5 cells/2 mL/well for 24 h. Thereafter, cells were exposed to drugs with or without the LV formulations at the indicated concentrations for 4 h. 2 h before the end of the incubation period [5-^3H]-2′-deoxycytidine (final concentration 1 µM) was added to the cells. […] In most cell lines we quantified dCK activity and dCK mRNA levels.

WiDr LF/LV cells = assay: Growth inhibition, SRB assay, WiDr LF/LV; assay type: cell-based, human; conditions: Homo sapiens, WiDr, 72 h, WiDr LF/LV, SRB, read-out: IC50, 72 h drug exposure
Method: as §1

SW948 cells = assay: Growth inhibition, SRB assay, SW948; assay type: cell-based; conditions: Homo sapiens, SW948, 72 h, read-out: IC50, 72 h drug exposure
Method: as §1

colon cancer cell lines = assay: Growth inhibition, SRB assay, panel of colon cancer cell lines; assay type: cell-based, human; conditions: Homo sapiens, read-out: IC50 range over colon cancer cell lines
Method: as §1

CaCo2 LF/LV cells = assay: Growth inhibition, SRB assay, CaCo2 LF/LV; assay type: cell-based; conditions: Homo sapiens, Caco-2, 72 h, read-out: IC50, 72 h drug exposure
Method: as §1

CaCo2 cells = assay: Growth inhibition, SRB assay, CaCo2; assay type: cell-based; conditions: Homo sapiens, Caco-2, 72 h, read-out: IC50, 72 h drug exposure
Method: as §1

LS174T cells = assay: Growth inhibition, SRB assay, LS174T; assay type: cell-based; conditions: Homo sapiens, 72 h, read-out: IC50, 72 h drug exposure
Method: as §1

HT29 cells = assay: Growth inhibition, SRB assay, HT29; assay type: cell-based; conditions: Homo sapiens, HT-29, 72 h, read-out: IC50, 72 h drug exposure
Method: as §1

H460 cells = assay: Growth inhibition, SRB assay, H460 (NSCLC); assay type: cell-based, human; conditions: H460, SRB, read-out: IC50, 72 h drug exposure
Method: as §1

NSCLC and MPM cell lines = assay: Growth inhibition, SRB assay, NSCLC and MPM cell lines; assay type: cell-based, human; conditions: 5 µM l-LV, H28, MSTO-211H, H460, H292
Method: as §1

MSTO-211H cells = assay: Growth inhibition, SRB assay, MSTO-211H (MPM); assay type: cell-based, human; conditions: SRB, read-out: IC50, 72 h drug exposure
Method: as §1

H292 cells = assay: Growth inhibition, SRB assay, H292 (NSCLC); assay type: cell-based, human; conditions: H292, SRB, read-out: IC50, 72 h drug exposure
Method: as §1

AA8 cells = assay: Growth inhibition, SRB assay, AA8 (parental CHO); assay type: cell-based, Chinese hamster; conditions: for IC50: AA8 parental CHO
Method: as §1

CHO/C5-PCFT cells = assay: Growth inhibition, SRB assay, CHO/C5-PCFT (PCFT-transfected); assay type: cell-based, Chinese hamster
Method: as §1

CHO/C5 cells = assay: Growth inhibition, SRB assay, CHO/C5 (RFC-deficient); assay type: cell-based, Chinese hamster
Method: as §1

H28 cells = assay: Growth inhibition, SRB assay, H28 (MPM); assay type: cell-based, human; conditions: H28, SRB, read-out: IC50, 72 h drug exposure
Method: as §1

CHO/C5-MOCK cells = assay: Growth inhibition, SRB assay, CHO/C5-MOCK (empty vector); assay type: cell-based, Chinese hamster
Method: as §1

CHO/C5-hRFC cells = assay: Growth inhibition, SRB assay, CHO/C5-hRFC (human RFC transfected); assay type: cell-based, Chinese hamster; conditions: CHO/C5-hRFC
Method: as §1

[2] = Cricetulus griseus, antifolate alone

Structure (SMILES): O=c1[nH]cc(F)c(=O)[nH]1 [5-FU, 5-fluorouracil]
IC50 (WiDr cells; 5-FU + 5 µM d-LV): 4.21 ± 0.57 µM | IC50 (WiDr cells; 5-FU + 5 µM l-LV): 1.95 ± 0.2 µM | IC50 (WiDr cells; 5-FU + 10 µM dl-LV): 2.91 ± 1.06 µM | IC50 (WiDr cells; 5-FU alone): 4.56 ± 0.34 µM | IC50 (SW1398 cells; 5-FU + 5 µM d-LV): 2.4 ± 0.68 µM | IC50 (SW1398 cells; 5-FU + 5 µM l-LV): 1.28 ± 0.18 µM | IC50 (SW1398 cells; 5-FU + 10 µM dl-LV): 1.44 ± 0.37 µM | IC50 (SW1398 cells; 5-FU alone): 2.99 ± 0.47 µM | IC50 ([1]; SW1398, 4 h, 5FU alone): 4.14 ± 0.24 µM | IC50 ([1]; WiDr, 4 h, 5FU alone): 3.76 ± 0.35 µM | IC50 ([1]; WiDr-LF, 4 h, 5FU alone): 3.67 ± 0.33 µM | IC50 (WiDr LF/LV cells; 5-FU + 5 µM d-LV): 2.78 ± 0.34 µM | IC50 (WiDr LF/LV cells; 5-FU + 5 µM l-LV): 1.77 ± 0.15 µM | IC50 (WiDr LF/LV cells; 5-FU + 10 µM dl-LV): 1.75 ± 0.08 µM | IC50 (WiDr LF/LV cells; 5-FU alone): 1.83 ± 0.18 µM | IC50 (SW948 cells; 5-FU + 5 µM d-LV): 3.85 ± 0.66 µM | IC50 (SW948 cells; 5-FU + 5 µM l-LV): 2.63 ± 0.4 µM | IC50 (SW948 cells; 5-FU + 10 µM dl-LV): 2.78 ± 0.29 µM | IC50 (SW948 cells; 5-FU alone): 3.65 ± 0.41 µM | IC50 (colon cancer cell lines; 5-FU + 5 µM d-LV): 2 to 10.5 µM | IC50 (colon cancer cell lines; 5-FU + 5 µM l-LV): 1.3 to 8.1 µM | IC50 (colon cancer cell lines; 5-FU + 10 µM dl-LV): 1.4 to 8.9 µM | IC50 (colon cancer cell lines; 5-FU only): 1.8 to 10.5 µM | IC50 (CaCo2 LF/LV cells; 5-FU + 5 µM d-LV): 1.96 ± 0.62 µM | IC50 (CaCo2 LF/LV cells; 5-FU + 5 µM l-LV): 1.78 ± 0.18 µM | IC50 (CaCo2 LF/LV cells; 5-FU + 10 µM dl-LV): 1.78 ± 0.39 µM | IC50 (CaCo2 LF/LV cells; 5-FU alone): 2.05 ± 0.28 µM | IC50 (CaCo2 cells; 5-FU + 5 µM d-LV): 3.04 ± 0.66 µM | IC50 (CaCo2 cells; 5-FU + 5 µM l-LV): 3.04 ± 0.39 µM | IC50 (CaCo2 cells; 5-FU + 10 µM dl-LV): 3.63 ± 0.38 µM | IC50 (CaCo2 cells; 5-FU alone): 3.08 ± 0.27 µM | IC50 (LS174T cells; 5-FU + 5 µM d-LV): 10.5 ± 0.8 µM | IC50 (LS174T cells; 5-FU + 5 µM l-LV): 8.11 ± 0.71 µM | IC50 (LS174T cells; 5-FU + 10 µM dl-LV): 8.95 ± 0.72 µM | IC50 (LS174T cells; 5-FU alone): 10.5 ± 0.82 µM | IC50 (HT29 cells; 5-FU + 5 µM d-LV): 7.5 ± 0.5 µM | IC50 (HT29 cells; 5-FU + 5 µM l-LV): 3.3 ± 0.2 µM | IC50 (HT29 cells; 5-FU + 10 µM dl-LV): 3.8 ± 0.3 µM | IC50 (HT29 cells; 5-FU alone): 7.9 ± 2.65 µM

IC50 (H460 cells; antifolate + 5 µM l-LV): 52.7 µM | IC50 (H460 cells; Homo sapiens, NCI-H460, 72 h, antifolate alone): 0.302 ± 0.012 µM | IC50 ([1]; WiDr, 4 h, antifolate alone): 0.175 ± 0.075 µM | IC50 (H292 cells; antifolate + 5 µM l-LV): 17 µM | IC50 (H292 cells; Homo sapiens, NCI-H292, 72 h, antifolate alone): 0.103 ± 0.012 µM
Structure (SMILES): Nc1nc2[nH]cc(CCc3ccc(C(=O)N[C@@H](CCC(=O)O)C(=O)O)cc3)c2c(=O)[nH]1 [PMX, pemetrexed]
l-LV-mediated increase in the IC50 values, range over cell lines (NSCLC and MPM cell lines): 144-211 fold | IC50 (MSTO-211H cells; Homo sapiens, 72 h, antifolate alone): 0.143 ± 0.014 µM | IC50 (MSTO-211H cells; antifolate + 5 µM l-LV): 21 µM | Protection by l-LV, increase of the IC50 value (AA8 cells; AA8 cells, 5 µM l-LV): 94 fold | IC50 (AA8 cells; antifolate + 5 µM l-LV): 3.5 µM | IC50 (AA8 cells; [2]): 0.037 µM | IC50 (CHO/C5-PCFT cells; [2]): 10.6 µM | IC50 (CHO/C5-PCFT cells; antifolate + 5 µM l-LV): 49.2 µM | IC50 (CHO/C5 cells; [2]): 3.1 µM | IC50 (CHO/C5 cells; antifolate + 5 µM l-LV): 59.6 µM | IC50 (H28 cells; antifolate + 5 µM l-LV): 34.3 µM | IC50 (H28 cells; Homo sapiens, NCI-H28, 72 h, antifolate alone): 0.28 ± 0.048 µM | IC50 (CHO/C5-MOCK cells; [2]): 42 µM | IC50 (CHO/C5-MOCK cells; antifolate + 5 µM l-LV): > 100 µM | IC50 (CHO/C5-hRFC cells; antifolate + 5 µM l-LV): 29.3 µM | IC50 (CHO/C5-hRFC cells; [2]): 0.046 µM
